# Patent US10618918B2, “Substituted boronic acids as antimicrobials” (priority 2015, dated 2020)
# Where two headings read alike, the source gives them in different places.
# Columns and labels:
# [1] = tested on: KP1004 KPC-2; test: Biapenem potentiation (MPC@1), strain KP1004 KPC-2; type: cell-based; conditions: minimum BLI concentration inhibiting growth with biapenem 1 μg/mL; tested up to 40 μg/mL
# Description: (§1) Biapenem was present in the test medium at 1 μg/mL. […] Table 3 summarizes the BLI potency of biapenem potentiation (MPC@1) for two strains overexpressing class A (KPC) and class D (OXA-48) carbapenemases. Biapenem MIC for each strain is also shown.
# [2] = tested on: KP1086 OXA-48; test: Biapenem potentiation (MPC@1), strain KP1086 OXA-48; type: cell-based; conditions: minimum BLI concentration inhibiting growth with biapenem 1 μg/mL; tested up to 40 μg/mL
# Description: as §1
# [3] = tested on: AB1053 OXA-72; test: Meropenem potentiation (MPC@8), strain AB1053 OXA-72; type: cell-based, Acinetobacter baumannii; conditions: minimum BLI concentration inhibiting growth with meropenem 8 μg/mL; tested up to 20 μg/mL
# [4] = tested on: AB1054 OXA-23; test: Meropenem potentiation (MPC@8), strain AB1054 OXA-23; type: cell-based, Acinetobacter baumannii
# [5] = target: T1, purified class A, C and D enzymes (β-lactamases) (Acinetobacter baumannii, UniProt Q9L4P2); test: biochemical; type: biochemical; conditions: purified OXA-23; nitrocefin (NCF) as reporter substrate
# T1 construct: rows headed: Ki (OXA-23, NCF), uM; other: purified OXA-23; nitrocefin (NCF) as reporter substrate
# [6] = target: purified class A, C and D enzymes (β-lactamases) (Enterobacter cloacae, UniProt P05364); test: biochemical; type: biochemical
# [7] = target: purified class A, C and D enzymes (β-lactamases) (Escherichia coli, UniProt Q9L5C7); test: biochemical; type: biochemical
# [8] = target: purified class A, C and D enzymes (β-lactamases) (Klebsiella pneumoniae, UniProt Q6XEC0); test: biochemical; type: biochemical
# [9] = target: purified class A, C and D enzymes (β-lactamases) (Klebsiella pneumoniae, UniProt Q9F663); test: biochemical; type: biochemical
# [10] = target: T2, purified class A, C and D enzymes (β-lactamases) (Pseudomonas aeruginosa, UniProt P24735); test: biochemical; type: biochemical
# T2 construct: rows headed: Ki (Pa-AmpC, NCF), uM; other: purified Pa-AmpC; nitrocefin (NCF) as reporter substrate
# [11] = target: T3, purified class A, C and D enzymes (β-lactamases) (UniProt P0AD64, L31Q/G234S/E235K, species not given); test: biochemical; type: biochemical
# T3 construct: Ki (SHV-12, NCF), uM; other: purified SHV-12; nitrocefin (NCF) as reporter substrate
# T3 sequence (P0AD64 1-286 L31Q/G234S/E235K): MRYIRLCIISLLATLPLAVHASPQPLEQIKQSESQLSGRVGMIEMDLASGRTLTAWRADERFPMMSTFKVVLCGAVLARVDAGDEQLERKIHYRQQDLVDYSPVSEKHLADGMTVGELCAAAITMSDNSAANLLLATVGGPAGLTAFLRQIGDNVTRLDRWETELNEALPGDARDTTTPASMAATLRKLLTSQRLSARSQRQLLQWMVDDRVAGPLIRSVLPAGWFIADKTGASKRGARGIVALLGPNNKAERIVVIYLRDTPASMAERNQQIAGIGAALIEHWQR
# [12] = tested on: PAM1032/KPC-2; test: Biapenem potentiation MPC64 in PAM1032/KPC-2 (efflux proficient, overexpresses MexAB-OprM); type: cell-based, Pseudomonas aeruginosa
# Description: (§2) Efflux of BLIs from Pseudomonas aeruginosa by the MexAB-OprM efflux pump was also evaluated. The plasmid expressing the gene encoding KPC-2 was introduced into two strains of P. aeruginosa, PAM1032 and PAM 1154 that overexpressed or lacked MexAB-OprM, respectively. […] Potency of BLIs to potentiate biapenem in these strains was determined.
# [13] = tested on: PAM1154/KPC-2; test: Biapenem potentiation MPC64 in PAM1154/KPC-2 (efflux deficient, lacks MexAB-OprM); type: cell-based, Pseudomonas aeruginosa
# Description: as §2
# [14] = tested on: ECL1002; test: Aztreonam potentiation (MPC@4), strain ECL1002; conditions: minimum BLI concentration inhibiting growth with aztreonam 4 μg/mL; tested up to 40 μg/mL
# [15] = tested on: ec308 SHV-5; test: Aztreonam potentiation (MPC@4), strain ec308 SHV-5; conditions: minimum BLI concentration inhibiting growth with aztreonam 4 μg/mL; tested up to 40 μg/mL
# [16] = tested on: ec302 TEM-10; test: Aztreonam potentiation (MPC@4), strain ec302 TEM-10; conditions: minimum BLI concentration inhibiting growth with aztreonam 4 μg/mL; tested up to 40 μg/mL
# [17] = tested on: KP1004 KPC-2; test: Aztreonam potentiation (MPC@4), strain KP1004 KPC-2
# [18] = tested on: EC1010 CMY-6; test: Aztreonam potentiation (MPC@4), strain EC1010 CMY-6
# [19] = tested on: KP1010 SHV-12; test: Aztreonam potentiation (MPC@4), strain KP1010 SHV-12
# [20] = tested on: KP1009 CTX-M-15; test: Aztreonam potentiation (MPC@4), strain KP1009 CTX-M-15; conditions: minimum BLI concentration inhibiting growth with aztreonam 4 μg/mL; tested up to 40 μg/mL
# [21] = tested on: KP1005 CTX-M-14; test: Tigemonam potentiation (MPC@4), strain KP1005 CTX-M-14
# [22] = biochemical; type: biochemical
# [23] = minimum BLI concentration inhibiting growth with aztreonam 4 μg/mL, tested up to 40 μg/mL
# Chain of purified class A, C and D enzymes (β-lactamases) (Escherichia coli, UniProt Q9L5C7) (Q9L5C7 entry or part of it): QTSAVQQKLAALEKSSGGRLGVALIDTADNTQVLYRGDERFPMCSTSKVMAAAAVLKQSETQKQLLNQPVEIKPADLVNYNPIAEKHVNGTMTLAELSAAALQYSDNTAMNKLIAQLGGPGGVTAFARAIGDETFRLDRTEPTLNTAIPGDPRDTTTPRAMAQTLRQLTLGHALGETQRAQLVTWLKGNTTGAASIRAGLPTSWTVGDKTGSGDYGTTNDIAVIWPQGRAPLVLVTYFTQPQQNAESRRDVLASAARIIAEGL
# T2 sequence (P24735 whole entry): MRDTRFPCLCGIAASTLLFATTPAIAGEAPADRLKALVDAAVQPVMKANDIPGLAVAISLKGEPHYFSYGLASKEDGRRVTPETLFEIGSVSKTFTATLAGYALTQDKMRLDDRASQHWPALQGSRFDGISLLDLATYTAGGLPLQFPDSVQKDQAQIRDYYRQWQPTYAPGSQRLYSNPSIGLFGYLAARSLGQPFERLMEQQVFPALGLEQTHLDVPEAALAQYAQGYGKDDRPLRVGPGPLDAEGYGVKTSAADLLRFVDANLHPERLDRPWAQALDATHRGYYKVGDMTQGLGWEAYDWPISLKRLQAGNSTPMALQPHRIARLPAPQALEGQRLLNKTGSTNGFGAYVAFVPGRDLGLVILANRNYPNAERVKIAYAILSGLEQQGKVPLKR
# Chain of purified class A, C and D enzymes (β-lactamases) (Enterobacter cloacae, UniProt P05364) (P05364 21-381): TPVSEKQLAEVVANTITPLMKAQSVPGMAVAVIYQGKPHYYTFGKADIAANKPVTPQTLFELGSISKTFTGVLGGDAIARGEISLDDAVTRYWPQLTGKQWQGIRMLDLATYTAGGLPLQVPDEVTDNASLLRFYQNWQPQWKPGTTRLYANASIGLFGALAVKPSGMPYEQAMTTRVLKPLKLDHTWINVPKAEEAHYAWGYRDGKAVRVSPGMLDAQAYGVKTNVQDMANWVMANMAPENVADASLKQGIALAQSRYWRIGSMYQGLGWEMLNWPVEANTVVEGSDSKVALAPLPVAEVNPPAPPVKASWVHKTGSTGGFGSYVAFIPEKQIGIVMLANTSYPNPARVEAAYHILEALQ
# T1 sequence (Q9L4P2 whole entry): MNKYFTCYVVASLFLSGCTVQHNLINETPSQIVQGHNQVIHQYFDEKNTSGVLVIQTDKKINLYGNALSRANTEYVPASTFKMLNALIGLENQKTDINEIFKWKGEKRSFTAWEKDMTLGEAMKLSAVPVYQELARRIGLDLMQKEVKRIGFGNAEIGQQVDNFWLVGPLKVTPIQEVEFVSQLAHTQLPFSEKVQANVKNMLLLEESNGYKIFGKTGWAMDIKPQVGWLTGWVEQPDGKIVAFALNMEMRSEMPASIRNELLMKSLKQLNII
SMILES,BPM MPC1 KP1004 KPC-2 [1],BPM MPC1 OXA-48 KP1086 [2],MPM MPC8 AB1053 OXA-72 [3],AZT MPC4 ECL1002 [14],AZT MPC4 SHV-5 ec308 [15],AZT MPC4 TEM-10 ec302 [16],AZT MPC4 CTX-M-15 KP1009 [20],MPM MPC8 AB1054 OXA-23 [4],Ki [22] [nM],"Ki (P99, NCF), uM [6]","Ki (CTX-M-14, NCF), uM [7]","Ki (OXA-48, NCF), uM [8]","Ki (KPC-2, NCF), uM [9]",Ki [10] [nM],PAM1032/KPC-2 Biapenem MPC64 [12],PAM1154/KPC-2 Biapenem MPC64 [13],AZT MPC4 KPC-2 KP1004 [17],AZT MPC4 CMY-6 EC1010 [18],AZT MPC4 SHV-12 KP1010 [19],TIG MPC4 CTX-M-14 KP1005 [21],further results
"CSCC(=O)NC1CB(O)Oc2c(C(=O)O)cccc21 (centres unmarked) [Compound 3, 2-HYDROXY-4-(2-(METHYLTHIO)ACETAMIDO)-3,4-DIHYDRO-2H-BENZO[E][1.2]OXABORININE-8-CARBOXYLIC ACID]",X (X = MPC@1 ≤ 5 μg/mL),X (X = MPC@1 ≤ 5 μg/mL),Y (Y = 5 μg/mL < MPC@1 ≤ 20 μg/mL),X (X = MPC@4 ≤ 5 μg/mL),X (X = MPC@4 ≤ 5 μg/mL),X (X = MPC@4 ≤ 5 μg/mL),X (X = MPC@4 ≤ 5 μg/mL),,,,,,,,,,,,,,"MPM MPC8 AB1054 OXA-23 ([4]; minimum BLI concentration inhibiting growth with meropenem 8 μg/mL, tested up to 20 μg/mL): Z (Z = MPC@1 > 20 μg/mL); Ki [5]: < 100 nM; Ki (P99, NCF), uM ([6]; purified P99, nitrocefin (NCF) as reporter substrate): X (X = Ki ≤ 0.1 μM); Ki (CTX-M-14, NCF), uM ([7]; purified CTX-M-14, nitrocefin (NCF) as reporter substrate): X (X = Ki ≤ 0.1 μM); Ki (OXA-48, NCF), uM ([8]; purified OXA-48, nitrocefin (NCF) as reporter substrate): X (X = Ki ≤ 0.1 μM); Ki (KPC-2, NCF), uM ([9]; purified KPC-2, nitrocefin (NCF) as reporter substrate): X (X = Ki ≤ 0.1 μM); Ki ([10]; purified Pa-AmpC, nitrocefin (NCF) as reporter substrate, read-out: Ki (Pa-AmpC, NCF)): < 100 nM; Ki ([11]; purified SHV-12; nitrocefin (NCF) as reporter substrate; read-out: Ki (SHV-12, NCF)): < 100 nM; PAM1032/KPC-2 Biapenem MPC64 ([12]; BLI concentration decreasing biapenem MIC 64-fold, from 32 μg/ml to 0.5 μg/ml, efflux proficient strain): 20; PAM1154/KPC-2 Biapenem MPC64 ([13]; BLI concentration decreasing biapenem MIC 64-fold, from 32 μg/ml to 0.5 μg/ml, efflux deficient strain): 2.5; AZT MPC4 KPC-2 KP1004 [17, 23]: X (X = MPC@4 ≤ 5 μg/mL); AZT MPC4 CMY-6 EC1010 [18, 23]: X (X = MPC@4 ≤ 5 μg/mL); AZT MPC4 SHV-12 KP1010 [19, 23]: X (X = MPC@4 ≤ 5 μg/mL); TIG MPC4 CTX-M-14 KP1005 ([21]; minimum BLI concentration inhibiting growth with tigemonam 4 μg/mL, tested up to 40 μg/mL): X (X = MPC@4 ≤ 5 μg/mL)"
"O=C([O-])c1nccc2c1O[B-](O)(O)CC2.[Na+].[Na+] [Compound 6, DISODIUM; 4,4-DIHYDROXY-5-OXA-8-AZA-4-BORANUIDABICYCLO[4.4.0]DECA-1(6),7,9-TRIENE-7-CARBOXYLATE]",X (X = MPC@1 ≤ 5 μg/mL),X (X = MPC@1 ≤ 5 μg/mL),X (X = MPC@1 ≤ 5 μg/mL),X (X = MPC@4 ≤ 5 μg/mL),Y (Y = 5 μg/mL < MPC@4 ≤ 20 μg/mL),X (X = MPC@4 ≤ 5 μg/mL),X (X = MPC@4 ≤ 5 μg/mL),X (key: X = MPC@1 ≤ 5 μg/mL; Y = 5 μg/mL < MPC@1 ≤ 20 μg/mL; Z = MPC@1 > 20 μg/mL),< 100,X (key: X = Ki ≤ 0.1 μM; Y = 0.1 μM < Ki ≤ 1 μM; Z = Ki > 1 μM),X (key: X = Ki ≤ 0.1 μM; Y = 0.1 μM < Ki ≤ 1 μM; Z = Ki > 1 μM),X (key: X = Ki ≤ 0.1 μM; Y = 0.1 μM < Ki ≤ 1 μM; Z = Ki > 1 μM),X (key: X = Ki ≤ 0.1 μM; Y = 0.1 μM < Ki ≤ 1 μM; Z = Ki > 1 μM),< 100,5,0.3,X (key: X = MPC@4 ≤ 5 μg/mL; Y = 5 μg/mL < MPC@4 ≤ 20 μg/mL; Z = MPC@4 > 20 μg/mL),X (key: X = MPC@4 ≤ 5 μg/mL; Y = 5 μg/mL < MPC@4 ≤ 20 μg/mL; Z = MPC@4 > 20 μg/mL),X (key: X = MPC@4 ≤ 5 μg/mL; Y = 5 μg/mL < MPC@4 ≤ 20 μg/mL; Z = MPC@4 > 20 μg/mL),Y (key: X = MPC@4 ≤ 5 μg/mL; Y = 5 μg/mL < MPC@4 ≤ 20 μg/mL; Z = MPC@4 > 20 μg/mL),"Ki ([11]; read-out: Ki (SHV-12, NCF); purified SHV-12; nitrocefin (NCF) as reporter substrate): < 100 nM"
"O=C([O-])c1c(F)ccc2c1O[B-](O)(O)CC2.[Na+].[Na+] [Compound 8, DISODIUM; 8-FLUORO-4,4-DIHYDROXY-5-OXA-4-BORANUIDABICYCLO[4.4.0]DECA-1(6),7,9-TRIENE-7-CARBOXYLATE]",X (X = MPC@1 ≤ 5 μg/mL),X (X = MPC@1 ≤ 5 μg/mL),X (X = MPC@1 ≤ 5 μg/mL),X (X = MPC@4 ≤ 5 μg/mL),X (X = MPC@4 ≤ 5 μg/mL),X (X = MPC@4 ≤ 5 μg/mL),X (X = MPC@4 ≤ 5 μg/mL),X (key: X = MPC@1 ≤ 5 μg/mL; Y = 5 μg/mL < MPC@1 ≤ 20 μg/mL; Z = MPC@1 > 20 μg/mL),< 100,X (key: X = Ki ≤ 0.1 μM; Y = 0.1 μM < Ki ≤ 1 μM; Z = Ki > 1 μM),X (key: X = Ki ≤ 0.1 μM; Y = 0.1 μM < Ki ≤ 1 μM; Z = Ki > 1 μM),X (key: X = Ki ≤ 0.1 μM; Y = 0.1 μM < Ki ≤ 1 μM; Z = Ki > 1 μM),X (key: X = Ki ≤ 0.1 μM; Y = 0.1 μM < Ki ≤ 1 μM; Z = Ki > 1 μM),< 100,5,0.6,X (key: X = MPC@4 ≤ 5 μg/mL; Y = 5 μg/mL < MPC@4 ≤ 20 μg/mL; Z = MPC@4 > 20 μg/mL),X (key: X = MPC@4 ≤ 5 μg/mL; Y = 5 μg/mL < MPC@4 ≤ 20 μg/mL; Z = MPC@4 > 20 μg/mL),X (key: X = MPC@4 ≤ 5 μg/mL; Y = 5 μg/mL < MPC@4 ≤ 20 μg/mL; Z = MPC@4 > 20 μg/mL),X (key: X = MPC@4 ≤ 5 μg/mL; Y = 5 μg/mL < MPC@4 ≤ 20 μg/mL; Z = MPC@4 > 20 μg/mL),
